Patent US9505780B2, “Thienopyranones as kinase and epigenetic inhibitors” (SignalRx Pharmaceuticals, Inc., priority 2014, dated 2016)

Assays:
BRD4-1 = BRD4-1 (Homo sapiens (Human), UniProt O60885); assay: BRD4 region 1 (BRD4-1) inhibition; assay type: biochemical
BRD4-2 = BRD4-2 (Homo sapiens (Human), UniProt O60885); assay: BRD4 region 2 (BRD4-2) inhibition; assay type: biochemical
PI3Kβ = PI3Kβ (Homo sapiens (Human), UniProt P42338); assay: PI3K beta isoform inhibition; assay type: biochemical
Chain of PI3Kβ (P42338 whole entry, canonical isoform): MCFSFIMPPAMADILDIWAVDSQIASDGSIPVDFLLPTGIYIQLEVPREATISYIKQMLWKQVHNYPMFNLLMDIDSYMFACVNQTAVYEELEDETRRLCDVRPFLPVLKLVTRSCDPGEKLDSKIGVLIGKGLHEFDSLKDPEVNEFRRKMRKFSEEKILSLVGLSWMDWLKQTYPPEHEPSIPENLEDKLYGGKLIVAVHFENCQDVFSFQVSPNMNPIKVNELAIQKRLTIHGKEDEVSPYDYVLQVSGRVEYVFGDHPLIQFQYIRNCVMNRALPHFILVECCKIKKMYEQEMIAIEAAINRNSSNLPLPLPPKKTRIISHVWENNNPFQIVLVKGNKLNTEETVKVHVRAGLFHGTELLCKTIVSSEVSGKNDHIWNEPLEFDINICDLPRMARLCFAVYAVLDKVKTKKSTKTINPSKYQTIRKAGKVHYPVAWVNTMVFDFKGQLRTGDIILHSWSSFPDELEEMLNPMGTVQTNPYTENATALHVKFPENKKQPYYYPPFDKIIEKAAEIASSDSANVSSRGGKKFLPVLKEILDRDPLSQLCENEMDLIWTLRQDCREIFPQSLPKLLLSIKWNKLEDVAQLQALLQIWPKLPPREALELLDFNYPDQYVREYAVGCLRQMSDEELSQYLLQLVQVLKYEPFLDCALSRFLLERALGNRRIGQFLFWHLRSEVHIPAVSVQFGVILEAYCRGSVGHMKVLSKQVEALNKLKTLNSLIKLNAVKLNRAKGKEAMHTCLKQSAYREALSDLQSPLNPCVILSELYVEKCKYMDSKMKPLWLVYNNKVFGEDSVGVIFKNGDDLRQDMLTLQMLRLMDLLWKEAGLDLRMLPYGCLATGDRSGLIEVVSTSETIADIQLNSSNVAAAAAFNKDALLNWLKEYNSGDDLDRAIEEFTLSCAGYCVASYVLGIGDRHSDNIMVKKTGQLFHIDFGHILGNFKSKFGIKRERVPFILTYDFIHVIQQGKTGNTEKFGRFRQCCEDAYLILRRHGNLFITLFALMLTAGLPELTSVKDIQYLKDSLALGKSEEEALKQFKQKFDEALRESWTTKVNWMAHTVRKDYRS
Chain of PI3Kβ (P27986 whole entry partner, canonical isoform): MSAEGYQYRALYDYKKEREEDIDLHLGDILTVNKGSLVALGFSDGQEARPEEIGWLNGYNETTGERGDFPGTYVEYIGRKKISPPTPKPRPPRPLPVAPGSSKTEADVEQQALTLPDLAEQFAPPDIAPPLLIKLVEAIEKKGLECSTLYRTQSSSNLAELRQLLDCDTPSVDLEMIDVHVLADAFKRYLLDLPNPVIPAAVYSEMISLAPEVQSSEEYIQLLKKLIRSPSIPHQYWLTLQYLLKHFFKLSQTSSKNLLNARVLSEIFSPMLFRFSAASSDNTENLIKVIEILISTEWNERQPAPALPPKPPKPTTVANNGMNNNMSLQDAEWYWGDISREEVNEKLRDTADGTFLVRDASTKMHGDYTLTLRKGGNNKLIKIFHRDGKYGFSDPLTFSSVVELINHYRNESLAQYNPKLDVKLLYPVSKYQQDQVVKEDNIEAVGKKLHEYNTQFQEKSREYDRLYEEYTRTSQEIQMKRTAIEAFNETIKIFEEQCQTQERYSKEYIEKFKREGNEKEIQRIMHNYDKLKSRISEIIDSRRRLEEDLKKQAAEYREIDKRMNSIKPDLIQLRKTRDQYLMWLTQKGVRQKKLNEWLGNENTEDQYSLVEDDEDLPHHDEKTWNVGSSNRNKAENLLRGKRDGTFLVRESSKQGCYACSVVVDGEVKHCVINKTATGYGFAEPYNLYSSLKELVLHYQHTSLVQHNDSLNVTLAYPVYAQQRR

PI3Kδ = PI3Kδ (Homo sapiens (Human), UniProt O00329); assay: PI3K delta isoform inhibition; assay type: biochemical
Chain of PI3Kδ (O00329 whole entry, canonical isoform): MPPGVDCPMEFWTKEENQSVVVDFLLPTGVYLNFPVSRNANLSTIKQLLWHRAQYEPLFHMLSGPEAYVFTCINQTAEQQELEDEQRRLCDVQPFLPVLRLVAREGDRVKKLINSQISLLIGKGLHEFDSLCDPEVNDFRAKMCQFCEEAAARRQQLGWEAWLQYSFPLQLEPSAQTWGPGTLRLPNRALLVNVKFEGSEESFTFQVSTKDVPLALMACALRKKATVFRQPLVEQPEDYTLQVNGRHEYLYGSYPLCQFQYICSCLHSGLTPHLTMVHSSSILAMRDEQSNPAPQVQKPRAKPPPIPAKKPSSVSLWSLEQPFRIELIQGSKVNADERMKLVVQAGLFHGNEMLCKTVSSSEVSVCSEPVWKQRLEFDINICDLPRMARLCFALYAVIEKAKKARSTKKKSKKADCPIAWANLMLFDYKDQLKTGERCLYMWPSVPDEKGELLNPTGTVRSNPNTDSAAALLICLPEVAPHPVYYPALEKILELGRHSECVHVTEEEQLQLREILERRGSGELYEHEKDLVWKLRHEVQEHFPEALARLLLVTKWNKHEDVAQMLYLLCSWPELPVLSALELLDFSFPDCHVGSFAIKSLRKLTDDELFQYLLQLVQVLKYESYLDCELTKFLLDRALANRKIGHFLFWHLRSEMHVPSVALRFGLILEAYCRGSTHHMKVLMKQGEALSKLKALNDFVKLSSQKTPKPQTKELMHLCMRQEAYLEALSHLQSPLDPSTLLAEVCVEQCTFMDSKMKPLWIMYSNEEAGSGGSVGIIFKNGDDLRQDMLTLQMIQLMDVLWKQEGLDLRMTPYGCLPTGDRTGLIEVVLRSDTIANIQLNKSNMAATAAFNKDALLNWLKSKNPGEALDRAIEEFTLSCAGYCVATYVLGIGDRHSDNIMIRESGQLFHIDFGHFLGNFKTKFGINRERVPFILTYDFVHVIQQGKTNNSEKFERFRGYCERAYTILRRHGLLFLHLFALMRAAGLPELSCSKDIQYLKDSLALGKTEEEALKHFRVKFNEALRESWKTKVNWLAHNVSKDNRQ
Chain of PI3Kδ (P27986 whole entry partner, canonical isoform): as the sequence (P27986 whole entry partner, canonical isoform) above
Text: Inhibitory activity can be determined routinely using known methods and also front commercial vendors offering this service for kinases and bromodomain proteins. […] In vivo, PI3K inhibition can be determined from target tissue biopsies by standard tissue processing to disrupt cells and then performing Western Blot analysis to determine the presence or absence of pAKT (substrate of PI3K) relative to a control sample. The activity of a compound of the invention as an inhibitor of a bromodomain-containing protein, such as a BET protein, such as BRD2, BRD3, BRD4, and/or BRDT, or an isoform or mutant thereof may be determined in vitro, in vivo, or in a cell line. In vitro assays include assays that determine inhibition of bromodomain-containing proteins. Alternatively, inhibitor binding may be determined by running a competition experiment where a provided compound is incubated with a bromodomain-containing protein, such as a BET protein bound to known ligands, labeled or unlabeled. For example, bromodomain inhibition can be determined in vitro using Alpha Screen Technology (http://www.reactionbiology.com/webapps/site/NewsPDFs/Bromodomain%20Assay%20Platform%20for%20Drug%/20Screening%20and%20Discovery.pdf). In vivo bromodomain inhibition can be determined indirectly by evaluating the amount of protect present of proteins whose genes' transcription is influenced or controlled by the bromodomain protein, for example, the MYCN protein transcription is controlled by BRD4 (J. E. Delmore et al., Cell 2011, 146, 904-917; A. Puissant, Cancer Discov. 2013, 3, 308-323). Bromodomain inhibition may also be predicted by in silico modeling as described below in the Examples.
(§1) Several TP Scaffold compounds (structures shown in FIG. 2 and Table 3) were tested for inhibition activity against isoforms of PI3K (alpha, beta, gamma, and delta isoforms) and the bromodomain protein BRD4 at regions 1 (BRD4-1) and 2 (BRD4-2).

PI3Kγ = PI3Kγ (Homo sapiens (Human), UniProt P48736); assay: PI3K gamma isoform inhibition; assay type: biochemical
Chain of PI3Kγ (P48736 whole entry, canonical isoform): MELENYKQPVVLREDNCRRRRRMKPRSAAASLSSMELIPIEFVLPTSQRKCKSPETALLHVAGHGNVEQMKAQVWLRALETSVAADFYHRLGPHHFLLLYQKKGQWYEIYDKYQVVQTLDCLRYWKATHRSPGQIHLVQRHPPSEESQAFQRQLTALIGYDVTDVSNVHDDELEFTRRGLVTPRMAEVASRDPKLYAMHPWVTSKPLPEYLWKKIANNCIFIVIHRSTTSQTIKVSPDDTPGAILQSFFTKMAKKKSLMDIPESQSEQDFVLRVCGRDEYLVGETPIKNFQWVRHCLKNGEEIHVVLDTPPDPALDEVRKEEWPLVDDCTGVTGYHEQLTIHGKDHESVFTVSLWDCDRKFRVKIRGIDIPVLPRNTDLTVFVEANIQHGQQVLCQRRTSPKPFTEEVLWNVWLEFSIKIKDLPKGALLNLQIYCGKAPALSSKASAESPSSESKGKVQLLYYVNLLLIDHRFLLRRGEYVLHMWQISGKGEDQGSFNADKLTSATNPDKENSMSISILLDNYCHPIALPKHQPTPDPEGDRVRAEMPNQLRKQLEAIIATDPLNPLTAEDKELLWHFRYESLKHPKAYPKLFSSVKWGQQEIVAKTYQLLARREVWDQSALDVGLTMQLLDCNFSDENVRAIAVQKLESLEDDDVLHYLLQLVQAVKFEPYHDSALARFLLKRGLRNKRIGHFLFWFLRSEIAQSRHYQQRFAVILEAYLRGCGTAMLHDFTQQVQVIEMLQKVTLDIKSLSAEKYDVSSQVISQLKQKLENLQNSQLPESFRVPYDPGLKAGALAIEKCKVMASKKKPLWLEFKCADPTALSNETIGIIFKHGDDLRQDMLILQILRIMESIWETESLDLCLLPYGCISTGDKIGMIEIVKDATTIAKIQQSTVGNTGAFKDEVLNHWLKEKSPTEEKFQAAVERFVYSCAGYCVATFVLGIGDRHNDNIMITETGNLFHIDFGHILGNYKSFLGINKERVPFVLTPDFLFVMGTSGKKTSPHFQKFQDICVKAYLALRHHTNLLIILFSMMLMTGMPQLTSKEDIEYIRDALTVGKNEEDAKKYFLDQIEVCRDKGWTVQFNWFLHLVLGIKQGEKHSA

BRD4 = BRD4 (Homo sapiens, UniProt O60885); assay: BRD4 inhibition assay (region not distinguished); assay type: biochemical; details: BRD4 regions 1 and 2
SKNBE (2) cells = assay: Western blot of p-AKT and N-MYC in SKNBE(2) cells; assay type: cell-based, human; details: 24 hrs treatment, IGF stimulated
Description: Cells were stimulated with 50 ng/ml IGF for 30 min and used for lysate preparation. Proteins were quantitated by the BCA protein assay (Pierce). Equal amounts of protein were resolved by polyacrylamide gels, transferred to nitrocellulose membrane and probed by Western blot with the following primary antibodies: p-AKT(Ser473), API (Cell Signaling Technologies), N-MYC, CyclinD1 and β-actin (Santa Cruz Biotechnology).

[1] = system: MYCN amplified SKNBE(2) cells; assay: Brd4 chromatin precipitation, quantitative PCR of MYCN promoter region; assay type: cell-based, human; details: 24 hours exposure
Description: MYCN amplified SKNBE(2) cells were exposed to inhibitors for 24 hours then chromatin was precipitated with Brd4 (rabbit polyclonal antibody) along with rabbit IgG as a negative control (IgG). Precipitated chromatin was analyzed for the MYCN gene (2 sites within the MYCN promoter region) by quantitative PCR and enrichment is shown as the percentage of total input DNA (FIG. 4). The negative control region primers amplify within a gene desert region approximately 1 Mb away from MYCN (MYC-N NR). Error bars represent ±SEM of triplicate data. P<0.05 as compared to positive control (paired t-test). Positive control: No inhibitor; IP with BRD4 antibody, Negative Control: No inhibitor, IP with rabbit IgG.

Panc02 = assay: Orthotopic pancreatic model of spontaneous metastasis; assay type: in vivo, WT mice; details: 50 mg/kg, three times a week
Description: Panc02 (1×10^6) tumor cells were injected into the pancreas of WT mice (n=18). After 20 days, mice were randomized into two groups. One group was treated with DMSO (control) and the other group was treated with 50 mg/kg of SF2523, three tunes a week. Tumors were removed 35 days after tumor implantation. Values are mean±SEM (n=8 in each gp; P<0.01; pair wise two-sided Student's t test). […] Values are mean±SEM (n=7; P<0.01; pair wise two-sided. Student's t test). The data are representative of three independent experiments performed.

IMR32 cell line = assay: Real-time PCR of N-myc and Cyclin D1 mRNA; assay type: cell-based; details: 5 μM, 24 hrs
Description: Cells were stimulated with 50 ng/ml IGF and used for RNA Isolation after 24 hrs of treatment with various inhibitors. The results for N-Myc are shown in FIG. 7A and for Cyclin D1 in FIG. 7B.
The experiment of Example 7 was repeated in the IMR32 cell line (MYCN amplified neuroblastoma cancer cell line).

B16 melanoma cells = assay: Mouse model of melanoma metastasis, B16 F10 luciferase cells by tail vein; assay type: in vivo, WT mice; details: 50 mg/kg every other day, 15 days
Text: The luciferase signal was monitored every third day by rejecting luciferin, until the lungs were harvested on day 15 (n=5). […] Lungs extracted from these animals are shown below the luciferase imaged pictures supporting the repression of tumor growth in Cmpd 28-treated mice.

PC3 = assay: Cellular PI3K inhibitory activity, pAKT Ser473 ELISA; assay type: cell-based; details: Homo sapiens, PC-3; IGF-1 stimulated, pAKT serine 473
Description: Biological testing of compounds of Formula I. Representative compounds of the invention were tested for cellular PI3K inhibitory activity (as measured by the most robust marker of pathway activity pAKT) in a prostate cancer cell line (PC3), which is summarized in Table 3. […] After this time period the cells were serum starved for 5 hours followed by application of the test compound. Test compound was added as a DMSO (dimethyl sulfoxide) solution such that the final DMSO concentration in the cell media was less than or equal to 0.2% by volume. After 30 minutes of exposure the growth factor stimulant, human IGF-1 (Pepro Tech, Inc., Rocky Hill, N.J., Cat. #100-11), was added in each well. After 30 minutes of IGF-1 exposure, cells were removed the media and cell lysates were prepared using RIPA Lysis buffer (Upstate, Lake Placid, N.Y., Cat. #20-188), keeping on ice. The pAKT serine 473 level was measured in duplicate samples of the cell lysates using commercially available assays such as the Pathscan® Sandwich ELISA kit for Ser473 pAKT (Cell Signaling, Danvers, Mass. Cat. #7160). A SpectraMax Plus spectrophotometric plate reader (Molecular Devices, Sunnydale, Calif.) was used to measure the optical density signal for pAKT at 450 nm (OD450 nm). The pAKT OD450 nm readings were normalized by total protein amount in the cell lysates determined by standard methods.

NB9464 [2] = assay: NB9464 neuroblastoma tumor growth in nude mice; details: 50 mg/kg, 3 days a week for 1.5 weeks, intra-peritoneal
Description: MYCN-overexpressing murine neuroblastoma cells (NB9464) were transplanted into nude mice, grown lot 24 days and randomized into two groups.

PI3Kα = PI3Kα (Homo sapiens (Human), UniProt P42336); assay: PI3K alpha isoform inhibition; assay type: biochemical
Chain of PI3Kα (P42336 whole entry, canonical isoform): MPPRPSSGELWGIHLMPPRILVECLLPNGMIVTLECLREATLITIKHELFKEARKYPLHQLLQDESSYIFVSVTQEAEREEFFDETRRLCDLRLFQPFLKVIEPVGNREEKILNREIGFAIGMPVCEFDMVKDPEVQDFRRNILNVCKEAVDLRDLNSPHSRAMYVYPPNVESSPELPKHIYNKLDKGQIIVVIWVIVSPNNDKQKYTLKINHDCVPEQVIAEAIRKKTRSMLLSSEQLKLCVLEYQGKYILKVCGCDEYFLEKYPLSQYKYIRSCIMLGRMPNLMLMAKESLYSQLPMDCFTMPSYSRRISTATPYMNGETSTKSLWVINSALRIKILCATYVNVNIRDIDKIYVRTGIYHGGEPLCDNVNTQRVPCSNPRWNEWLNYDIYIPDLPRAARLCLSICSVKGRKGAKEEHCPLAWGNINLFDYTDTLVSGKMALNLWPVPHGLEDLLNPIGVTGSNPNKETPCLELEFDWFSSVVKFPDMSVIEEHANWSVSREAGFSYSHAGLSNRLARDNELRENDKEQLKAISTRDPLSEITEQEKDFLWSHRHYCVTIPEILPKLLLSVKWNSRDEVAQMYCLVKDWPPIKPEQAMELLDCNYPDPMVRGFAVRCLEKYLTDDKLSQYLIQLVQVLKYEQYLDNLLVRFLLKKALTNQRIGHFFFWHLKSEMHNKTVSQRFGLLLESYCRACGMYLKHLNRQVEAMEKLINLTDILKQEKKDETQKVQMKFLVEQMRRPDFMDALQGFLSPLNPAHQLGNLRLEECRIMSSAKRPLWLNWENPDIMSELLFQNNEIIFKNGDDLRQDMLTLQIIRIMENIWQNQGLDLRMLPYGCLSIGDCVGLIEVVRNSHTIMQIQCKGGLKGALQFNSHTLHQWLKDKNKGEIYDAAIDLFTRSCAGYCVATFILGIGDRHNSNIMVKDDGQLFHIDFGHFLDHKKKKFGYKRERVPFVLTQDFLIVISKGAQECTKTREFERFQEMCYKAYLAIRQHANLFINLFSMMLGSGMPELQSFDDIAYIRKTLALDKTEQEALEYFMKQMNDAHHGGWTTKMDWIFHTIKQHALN
Chain of PI3Kα (P27986 whole entry partner, canonical isoform): as the sequence (P27986 whole entry partner, canonical isoform) above

SKNBE(2) = assay: Cytotoxicity / proliferation study, alone and in combination; assay type: cell-based, human
NB9464 [3] = assay: as above; assay type: cell-based, murine
[4] = system: MYCN-dependent MB patient derived xenograft (PDX) cell line; assay: as above; assay type: cell-based
PI3K = PI3K inhibition (isoform not distinguished); assay type: biochemical
Description: as §1
All thienopyranone-based compounds tested inhibited either PI3K or BRD4 or both PI3K and BRD4. […] JQ1+, a known bromodomain inhibitor, was used as reference compound.

SMILES: O=c1cc(N2CCOCC2)oc2c(-c3ccc4c(c3)OCCO4)csc12 [Cmpd 28]
- IC50 (BRD4-1): 241 nM
- IC50 (BRD4-2): 1550 nM
- IC50 (PI3Kβ): 214 nM
- IC50 (PI3Kδ): 960 nM
- IC50 (PI3Kγ): 158 nM
- BRD4 inhibition (BRD4): showed activity
- MYCN protein quantity, Western blot (SKNBE (2) cells): decreased
- pAKT, Western blot (SKNBE (2) cells): decreased
- MYCN expression (Brd4 ChIP, MYCN promoter) [1]: significantly repressed MYCN expression
- spontaneous metastasis (Panc02): blocks spontaneous metastasis
- Cyclin D1 mRNA expression (IMR32 cell line): reducing mRNA expression
- MYCN mRNA expression (IMR32 cell line): inhibits MYCN expression
- luciferase bioimaging of cancer cells (B16 melanoma cells): little evidence of the presence of cancer cells
- reduction in metastatic nodules (B16 melanoma cells): 60%
- IC50 (PC3): 161 to 440 nM
- tolerability / body weight (NB9464 [2]): well tolerated (no body weight loss
- tumor growth compared to vehicle (NB9464 [2]): significantly blocked tumor growth

SMILES: Cc1sc2c(c1C)C(c1ccc(Cl)cc1)=N[C@@H](CC(=O)OC(C)(C)C)c1nnc(C)n1-2 [JQ-1]
- IC50 (PI3Kα): > 50000 nM
- IC50 (PI3Kδ): > 50000 nM
- IC50 (PI3Kγ): > 50000 nM
- IC50 (SKNBE(2)): 1900 nM
- IC50 (NB9464 [3]): 1600 nM
- IC50 [4]: 2200 nM
- PI3K inhibition (PI3K): does not inhibit PI3K
- MYCN protein quantity, Western blot (SKNBE (2) cells): inhibited only MYCN quantities
- MYCN expression (Brd4 ChIP, MYCN promoter) [1]: significantly repressed MYCN expression
